biological target: PolQ ATPase enzyme (1-894) (Homo sapiens (Human), UniProt O75417); assay: Polθ ATPase enzymatic assay (0.5 nM enzyme concentration), ADP-Glo; type: biochemical; conditions: 0.5 nM PolQ ATPase enzyme (1-894); average IC50
Procedure: PolQ ATPase enzyme (1-894) at 0.5 nM is incubated with a 10-point concentration response of inhibitors for 15 min at rt in the following buffer: 50 mM Tris Cl pH 7.5, 10% glycerol, 5 mM DTT, 10 mM MgCl2, 0.1 mg/ml BSA. Following pre-incubation with inhibitors, DNA (Fork C) at 20 nM and ATP at 100 μM are added to start the reaction. Enzymatic reaction proceeds at rt for 180 min. ATP consumption is measured using the ADP-Glo assay from Promega. Luminescence is read on the Envision and IC50 are determined using the variable slope 4-parameters equation.
Oligos are annealed by heating at 95° C. for 5 min in the following buffer (10 mM Tris-HCl PH7.5, 50 mM NaCl, 1 mM EDTA) and cooled to rt. […]

Sequence of PolQ ATPase enzyme (1-894) (O75417 1-894): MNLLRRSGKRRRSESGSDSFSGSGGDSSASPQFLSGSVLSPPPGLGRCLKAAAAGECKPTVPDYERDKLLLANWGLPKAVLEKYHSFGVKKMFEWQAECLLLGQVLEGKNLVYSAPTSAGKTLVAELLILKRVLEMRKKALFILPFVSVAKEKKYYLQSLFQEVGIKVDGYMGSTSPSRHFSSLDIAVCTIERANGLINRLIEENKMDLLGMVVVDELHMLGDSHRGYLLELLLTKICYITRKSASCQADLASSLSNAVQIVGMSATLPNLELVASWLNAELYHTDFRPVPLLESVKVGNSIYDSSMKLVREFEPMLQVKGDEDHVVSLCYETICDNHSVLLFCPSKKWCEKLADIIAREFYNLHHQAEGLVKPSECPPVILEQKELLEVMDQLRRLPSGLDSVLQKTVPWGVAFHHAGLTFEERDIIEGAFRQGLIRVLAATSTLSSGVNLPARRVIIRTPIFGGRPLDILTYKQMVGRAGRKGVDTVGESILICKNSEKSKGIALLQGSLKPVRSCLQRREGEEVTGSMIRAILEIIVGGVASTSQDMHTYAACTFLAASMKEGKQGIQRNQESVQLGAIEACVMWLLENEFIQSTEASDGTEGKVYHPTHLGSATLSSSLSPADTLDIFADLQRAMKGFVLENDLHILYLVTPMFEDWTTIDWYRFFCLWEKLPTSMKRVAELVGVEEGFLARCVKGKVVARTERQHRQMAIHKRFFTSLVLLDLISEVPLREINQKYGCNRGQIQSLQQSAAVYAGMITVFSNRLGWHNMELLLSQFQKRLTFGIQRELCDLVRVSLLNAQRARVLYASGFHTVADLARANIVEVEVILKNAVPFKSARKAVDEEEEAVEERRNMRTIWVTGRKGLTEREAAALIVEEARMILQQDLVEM

Row | Structure (SMILES) | IC50
1 | COc1cnc(C(F)F)cc1-c1cc(C#CCN2CCOCC2=O)ncc1C(=O)Nc1nnc(C#CC2CC2)s1 [Compound 542] | 0.29 nM
2 | COc1cnc(C(F)F)cc1-c1cc(C=C=CN2CCOCC2=O)ncc1C(=O)Nc1nnc(C#CC2CC2)s1 [Compound 543] | 51 nM
3 | COc1cnc(C(F)F)cc1-c1cc(-n2ccc(C)cc2=O)ncc1C(=O)Nc1nnc([C@H]2C[C@@H]2F)s1 [Compound 544] | 1.9 nM
4 | COc1cnc(C(F)F)cc1-c1cc(-n2ccc(C)cc2=O)ncc1C(=O)Nc1nnc([C@H]2C[C@@H]2C)s1 [Compound 545] | 1.1 nM
5 | C#C[C@H]1C[C@@H]1c1nnc(NC(=O)c2cnc(-n3cc(C)ccc3=O)cc2-c2cc(C(F)F)ncc2OC)s1 [Compound 546] | < 0.25 nM
6 | C#C[C@H]1C[C@@H]1c1nnc(NC(=O)c2cnc(-n3cccc(C)c3=O)cc2-c2cc(C(F)F)ncc2OC)s1 [Compound 547] | < 0.25 nM
7 | C#C[C@H]1C[C@@H]1c1nnc(NC(=O)c2cnc(-n3ccc(N4CCN(C)CC4)cc3=O)cc2-c2cc(C(F)F)ncc2OC)s1 [Compound 548] | 0.79 nM
8 | COc1cnc(C(F)F)cc1-c1cc(C#CC(C)(C)N2CCN(C)CC2)ncc1C(=O)Nc1nnc(C#CC2CC2)s1 [Compound 549] | 1.5 nM
9 | COc1cnc(C(F)F)cc1-c1cc(C#CCN2CCCC2=O)ncc1C(=O)Nc1nnc(C#CC2CC2)s1 [Compound 550] | < 0.25 nM
10 | COc1cnc(C(F)F)cc1-c1cc(-n2cc(C)ccc2=O)ncc1C(=O)Nc1nnc([C@H]2C[C@@H]2C(F)(F)F)s1 [Compound 551] | 0.47 nM
11 | COc1cnc(C(F)F)cc1-c1cc(-n2cccc(C)c2=O)ncc1C(=O)Nc1nnc([C@H]2C[C@@H]2C(F)(F)F)s1 [Compound 552] | 0.45 nM
12 | COc1cnc(C(F)F)cc1-c1cc(C#CC(C)(C)N2CCCCC2)ncc1C(=O)Nc1nnc(C#CC2CC2)s1 [Compound 553] | 0.5 nM
13 | COc1cnc(C(F)F)cc1-c1cc(C#CC2(N)CC2)ncc1C(=O)Nc1nnc(C#CC2CC2)s1 [Compound 554] | < 0.25 nM
14 | COc1cnc(C(F)F)cc1-c1cc(C#CC2CCN(C)CC2)ncc1C(=O)Nc1nnc(C#CC2CC2)s1 [Compound 555] | 1 nM
15 | COc1cnc(C(F)F)cc1-c1cc(C#CCNCC(F)(F)F)ncc1C(=O)Nc1nnc(C#CC2CC2)s1 [Compound 558] | < 0.25 nM
16 | COc1cnc(C(F)F)cc1-c1cc(C#CCN2CCNC2=O)ncc1C(=O)Nc1nnc(C#CC2CC2)s1 [Compound 559] | < 0.25 nM
17 | COc1cnc(C(F)F)cc1-c1cc(C#CC(C)(C)N2CC(C)(C)C2)ncc1C(=O)Nc1nnc(C#CC2CC2)s1 [Compound 560] | 1.15 nM
18 | COc1cnc(C(F)F)cc1-c1cc(C#CCN2C(=O)CCC2=O)ncc1C(=O)Nc1nnc(C#CC2CC2)s1 [Compound 561] | > 100 nM
19 | C#C[C@H]1C[C@@H]1c1nnc(NC(=O)c2cnc(-n3cccc(F)c3=O)cc2-c2cc(C(F)F)ncc2OC)s1 [Compound 562, 2″-(difluoromethyl)-N-(5-((1S,2S)-2-ethynylcyclopropyl)-1,3,4-thiadiazol-2-yl)-3-fluoro-5″-methoxy-2-oxo-2H-[1,2′:4′,4″-terpyridine]-5′-carboxamide] | < 0.25 nM
20 | COc1cnc(C(F)F)cc1-c1cc(-n2ccc(C)cc2=O)ncc1C(=O)Nc1nnc([C@H]2C[C@@H]2c2ccc(C#N)cc2)s1 [Compound 563] | < 0.25 nM

Row | Structure (SMILES) | IC50
21 | CCOC(=O)N1CCN(c2cc(-c3cc(C(F)F)ncc3OC)c(C(=O)Nc3nnc(C#CC4CC4)s3)cn2)C(=O)C12CC2 [Compound 564] | 0.38 nM
22 | C#C[C@H]1C[C@@H]1c1nnc(NC(=O)c2cnc(N3CCN(C(=O)OCC)C4(CC4)C3=O)cc2-c2cc(C(F)F)ncc2OC)s1 [Compound 565] | 1.1 nM
23 | COc1cnc(C(F)F)cc1-c1cc(-n2ccc(C)cc2=O)ncc1C(=O)Nc1nnc(C2CC3(CCC3)C2)s1 [Compound 566] | 2 nM
24 | COc1cnc(C(F)F)cc1-c1cc(-n2ccc(C)cc2=O)ncc1C(=O)Nc1nnc(C2CC(C)(C)C2)s1 [Compound 567] | 4.3 nM
25 | COc1cnc(C(F)F)cc1-c1cc(-n2ccc(C)cc2=O)ncc1C(=O)Nc1nnc(CC(C)(C)OC)s1 [Compound 568] | 45 nM
26 | C#C[C@H]1C[C@@H]1c1nnc(NC(=O)c2cnc(-n3ccc(CO)cc3=O)cc2-c2cc(C(F)F)ncc2OC)s1 [Compound 571] | < 0.25 nM
27 | C#C[C@H]1C[C@@H]1c1nnc(NC(=O)c2cnc(C#CCN3CCOCC3)cc2-c2cc(C(F)F)ncc2OC)s1 [Compound 573] | 1 nM
28 | C#C[C@H]1C[C@@H]1c1nnc(NC(=O)c2cnc(N3CCN(C)C4(CC4)C3=O)cc2-c2cc(C(F)F)ncc2OC)s1 [Compound 574] | 1.1 nM
29 | C#C[C@H]1C[C@@H]1c1nnc(NC(=O)c2cnc(-n3cccc(C(F)(F)F)c3=O)cc2-c2cc(C(F)F)ncc2OC)s1 [Compound 575] | 0.32 nM
30 | COc1cnc(C(F)F)cc1-c1cc(-n2ccc(C)cc2=O)ncc1C(=O)Nc1nnc(C(C)(C)OC)s1 [Compound 576] | 29 nM
31 | C#C[C@H]1C[C@@H]1c1nnc(NC(=O)c2cnc(Oc3cc(Cl)ccn3)cc2-c2cc(C(F)F)ncc2OC)s1 [Compound 577] | < 0.25 nM
32 | COc1cnc(C(F)F)cc1-c1cc(-n2ccc(C)cc2=O)ncc1C(=O)Nc1nnc(COC(C)(C)C)s1 [Compound 578] | 25 nM
33 | COc1cnc(C(F)F)cc1-c1cc(C#CCN2CCCCC2)ncc1C(=O)Nc1nnc(C#CC2CC2)s1 [Compound 589] | 0.7 nM
34 | C#C[C@H]1C[C@@H]1c1nnc(NC(=O)c2cnc(-n3cccc(Cl)c3=O)cc2-c2cc(C(F)F)ncc2OC)s1 [Compound 591] | < 0.25 nM
35 | C#C[C@H]1C[C@@H](c2nnc(NC(=O)c3cnc(-n4ccc(C)cc4=O)cc3-c3cc(C(F)F)ncc3OC)s2)C1 [Compound 594] | 3 nM
36 | C#C[C@H]1C[C@H](c2nnc(NC(=O)c3cnc(-n4ccc(C)cc4=O)cc3-c3cc(C(F)F)ncc3OC)s2)C1 [Compound 595] | 2.9 nM
37 | COc1cnc(C(F)F)cc1-c1cc(C#CCN2CC[S+]([O-])CC2)ncc1C(=O)Nc1nnc(C#CC2CC2)s1 [Compound 596] | 0.45 nM
38 | C=C1CC(c2nnc(NC(=O)c3cnc(-n4ccc(C)cc4=O)cc3-c3cc(C(F)F)ncc3OC)s2)C1 [Compound 597] | 3.6 nM
39 | COc1cnc(C(F)F)cc1-c1cc(C#CCn2cccn2)ncc1C(=O)Nc1nnc(C#CC2CC2)s1 [Compound 598] | 15 nM
40 | COc1cnc(C(F)F)cc1-c1cc(C#CCn2cc(C)cn2)ncc1C(=O)Nc1nnc(C#CC2CC2)s1 [Compound 599] | 21 nM

Row | Structure (SMILES) | IC50
41 | COc1cnc(C(F)F)cc1-c1cc(C#CCN2CCCC2)ncc1C(=O)Nc1nnc(C#CC2CC2)s1 [Compound 600] | 0.6 nM
42 | COc1cnc(C(F)F)cc1-c1cc(C#CCn2ccnc2)ncc1C(=O)Nc1nnc(C#CC2CC2)s1 [Compound 601] | 2.7 nM
43 | COCc1nnc(NC(=O)c2cnc(-n3ccc(C)cc3=O)cc2-c2cc(C(F)F)ncc2OC)s1 [Compound 602] | 11 nM
44 | COc1cnc(C(F)F)cc1-c1cc(-n2ccc(C)cc2=O)ncc1C(=O)Nc1nnc(CC(=O)N(C)C)s1 [Compound 603] | 40 nM
45 | COc1cnc(C(F)F)cc1-c1cc(-n2cccc(Cl)c2=O)ncc1C(=O)Nc1nnc([C@H]2C[C@@H]2C(F)(F)F)s1 [Compound 607] | 0.95 nM
46 | COc1cnc(C(F)F)cc1-c1cc(-n2cccc(Cl)c2=O)ncc1C(=O)Nc1nnc([C@H]2C[C@@H]2C)s1 [Compound 608] | 0.79 nM
47 | COc1cnc(C(F)F)cc1-c1cc(C#CCN2CCOCC2)ncc1C(=O)Nc1nnc([C@H]2C[C@@H]2C(F)(F)F)s1 [Compound 609] | 3.1 nM
48 | COc1cnc(C(F)F)cc1-c1cc(-n2ccc(OC3COC3)cc2=O)ncc1C(=O)Nc1nnc(C#CC2CC2)s1 [Compound 610] | 0.27 nM
49 | COc1cnc(C(F)F)cc1-c1cc(-n2ccc(OC3CCN(C)CC3)cc2=O)ncc1C(=O)Nc1nnc(C#CC2CC2)s1 [Compound 611] | 1.2 nM
50 | COc1cnc(C(F)F)cc1-c1cc(-n2ccc(N3CC4(COC4)C3)cc2=O)ncc1C(=O)Nc1nnc(C#CC2CC2)s1 [Compound 613] | 0.35 nM
51 | COc1cnc(C(F)F)cc1-c1cc(-n2ccc(N(C)C3COC3)cc2=O)ncc1C(=O)Nc1nnc(C#CC2CC2)s1 [Compound 614] | 0.4 nM
52 | C#C[C@H]1C[C@@H]1c1nnc(NC(=O)c2cnc(-n3ccc(OC4COC4)cc3=O)cc2-c2cc(C(F)F)ncc2OC)s1 [Compound 617] | < 0.25 nM
53 | COc1cnc(C(F)F)cc1-c1cc(-n2ccc(C)cc2=O)ncc1C(=O)Nc1nnc(COc2cnn(C)c2)s1 [Compound 621] | 6.3 nM
54 | COc1cnc(C(F)F)cc1-c1cc(-n2ccc(C)cc2=O)ncc1C(=O)Nc1nnc([C@H]2C[C@@H]2C(F)F)s1 [Compound 623] | < 0.25 nM
55 | C#C[C@H]1C[C@@H]1c1nnc(NC(=O)c2cnc(-n3ccc(Cl)cc3=O)cc2-c2cc(C(F)F)ncc2OC)s1 [Compound 624] | 1.1 nM
56 | C#C[C@H]1C[C@@H]1c1nnc(NC(=O)c2cnc(-n3ccc(N4CC5(COC5)C4)cc3=O)cc2-c2cc(C(F)F)ncc2OC)s1 [Compound 627] | 0.3 nM
57 | COc1cnc(C(F)F)cc1-c1cc(C#CCN(C)C)ncc1C(=O)Nc1nnc(C#CC2CC2)s1 [Compound 628] | < 0.25 nM
58 | COc1cnc(C(F)F)cc1-c1cc(C#CCC(C)(C)O)ncc1C(=O)Nc1nnc([C@@H]2C[C@H]2c2ccn(C)n2)s1 [Compound 630] | 8.5 nM
59 | COc1cnc(C(F)F)cc1-c1cc(C#CCC(C)(C)O)ncc1C(=O)Nc1nnc([C@H]2C[C@@H]2c2ccn(C)n2)s1 [Compound 631] | 0.93 nM
